Assay results: paper PMC12551991, “Inheritance and enzymatic basis of anthocyanin malonylation in Fragaria × ananassa” (The Plant Journal, 2025)

Legend:
Assay in all cases: LC-MS malonyltransferase assay, non-linear Michaelis-Menten fit
Assay type in all cases: biochemical, Fragaria × ananassa
Conditions in all cases: potassium phosphate pH 7.0, 30°C, 30 min
MAT1C (FaMAT1C) = system: T1, MAT1C (FaMAT1C)
T1 construct: gene MAT1; no tag removal described
From the text: LC-MS malonyltransferase assay, non-linear Michaelis-Menten fit on MAT1C (FaMAT1C)

MAT4C1/S1 (FaMAT4C1) = system: T2, MAT4C1/S1 (FaMAT4C1)
T2 construct: gene MAT4; no tag removal described
From the text: LC-MS malonyltransferase assay, non-linear Michaelis-Menten fit on MAT4C1/S1 (FaMAT4C1)

MAT1S (FaMAT1S) = system: T3, MAT1S (FaMAT1S)
T3 construct: gene MAT1; no tag removal described
From the text: LC-MS malonyltransferase assay, non-linear Michaelis-Menten fit on MAT1S (FaMAT1S)

MAT2C1/S1 (MAT2S1) = system: T4, MAT2C1/S1 (MAT2S1)
T4 construct: gene MAT2; no tag removal described
From the text: LC-MS malonyltransferase assay, non-linear Michaelis-Menten fit on MAT2C1/S1 (MAT2S1)

MAT2C2/S2 (MAT2S2) = system: T5, MAT2C2/S2 (MAT2S2)
T5 construct: gene MAT2; no tag removal described
From the text: LC-MS malonyltransferase assay, non-linear Michaelis-Menten fit on MAT2C2/S2 (MAT2S2)

[1] = acceptor, co-substrate malonyl-CoA
[2] = donor, co-substrate quercetin-3-glucoside

Row | SMILES | Km (MAT1C (FaMAT1C); [1]) | Km (MAT4C1/S1 (FaMAT4C1); [1]) | Km (MAT1S (FaMAT1S); [1]) | Km (MAT2C1/S1 (MAT2S1); [1]) | Km (MAT2C2/S2 (MAT2S2); [2]) | Km (MAT1C (FaMAT1C); [2]) | Km (MAT2C1/S1 (MAT2S1); [2]) | Km (MAT4C1/S1 (FaMAT4C1); [2]) | Km (MAT1S (FaMAT1S); [2]) | Km (MAT2C2/S2 (MAT2S2); [1])
1 | OC[C@H]1O[C@@H](Oc2cc3c(O)cc(O)cc3[o+]c2-c2ccc(O)c(O)c2)[C@H](O)[C@@H](O)[C@@H]1O [Cyanidin‐3‐glucoside] | 17 ± 3 µM | 63 ± 30 µM | 11 ± 3 µM | – | – | – | – | – | – | –
2 | O=c1c(O[C@@H]2O[C@H](CO)[C@@H](O)[C@H](O)[C@H]2O)c(-c2ccc(O)cc2)oc2cc(O)cc(O)c12 [Kaempferol‐3‐glucoside] | 150 ± 40 µM | 250 ± 80 µM | 300 ± 60 µM | 790 ± 300 µM | – | – | – | – | – | –
3 | CC(C)(COP(=O)(O)OP(=O)(O)OC[C@H]1O[C@@H](n2cnc3c(N)ncnc32)[C@H](O)[C@@H]1OP(=O)(O)O)[C@@H](O)C(=O)NCCC(=O)NCCSC(=O)CC(=O)O [Malonyl‐CoA] | – | – | – | – | 24 ± 20 µM | 700 ± 200 µM | 22 ± 10 µM | 410 ± 200 µM | 450 ± 200 µM | –
4 | OC[C@H]1O[C@@H](Oc2cc3c(O)cc(O)cc3[o+]c2-c2ccc(O)cc2)[C@H](O)[C@@H](O)[C@@H]1O [Pelargonidin‐3‐glucoside] | 270 ± 100 µM | 390 ± 200 µM | 400 ± 200 µM | – | – | – | – | – | – | –
5 | O=c1c(O[C@@H]2O[C@H](CO)[C@@H](O)[C@H](O)[C@H]2O)c(-c2ccc(O)c(O)c2)oc2cc(O)cc(O)c12 [Quercetin‐3‐glucoside] | 310 ± 100 µM | 220 ± 100 µM | 300 ± 100 µM | 180 ± 50 µM | – | – | – | – | – | 180 ± 60 µM
